This is an account of results in EP1148124A1 (priority 1999, dated 2000).

Read-outs that look alike come from different tables or passages of the source.

The nature of this data set: Reporter assay (No. 1), cell number reporter gene (sea pansy luciferase, pRL-TK), clone of Example 2. Particulars: mouse, hepa1c1c7 cells, about 40 hours, ratio to 0 pg/ml, read-out: Amount of luminescence by sea pansy luciferase (from pRL-TK) Ratio. The format is cell-based. On the procedure:
For the measured values of the amount of expression of the cell number reporter gene, a ratio is determined of the measured value in the test substance added group to the measured value in the only solvent added group (control group). When the ratio is, for example, in the range of 0.8 to 1.2, the measured value of the amount of expression of the ligand responsive reporter gene in the test substance added group is selected for evaluating the agonist or antagonist activity of the test substance against the ability of a ligand responsive transcriptional regulatory factor to promote transcription. When the ratio takes a small value such as smaller than 0.8, for example, it is possible that the test substance has cytotoxicity. In contrast, when the ratio takes a large value such as greater than 1.2, for example, it is possible that the test substance has activity against the transcriptional regulatory system of a gene without mediation of a ligand responsive transcriptional regulatory factor. However, the range of this ratio suitable for selecting the measured value of the amount of expression of the […] reporter gene may vary depending on certain properties of the present cells used and the conditions of measurement, and it is not limited to the above examples of numerical values.
Separately, plasmid pGV-Ya-XREx5 (ligand responsive reporter gene containing plasmid) constructed in Example 1 was digested with Bam HI. Further, plasmid pRL-TK (cell number reporter gene containing plasmid; marketed by Toyo Ink) containing the sea pansy luciferase gene used as the cell number reporter gene was digested with Bam HI, and neomycin resistance (aminoglycoside phosphotransferase) gene containing plasmid pRc/RSV (available from INVITROGEN) was digested with Hind III. These three digested plasmids, i.e., Bam HI digested pGV-Ya-XREx5 (2.8 µg), Bam HI digested pRL-TK (2.8 µg), and Hind III digested pRc/RSV (0.5 µg), were then mixed with 300 µl of αMEM medium (mixture A), while 36 µl of lipofectin (available from GIBCO-BRL) was mixed with 300 µl of αMEM medium (mixture B). After being left at room temperature for 30 minutes, mixtures A and B were combined together and left at room temperature for 10 minutes. The Hepa1clc7 cells cultured overnight as described above were then washed once with αMEM medium, to which there was added a solution prepared by adding and mixing additional 5.4 ml of αMEM medium to the above mixture (A + B). Culturing of the resulting mixture was carried out for 5 hours. The medium was then replaced with 10% serum containing αMEM medium, followed by further culturing overnight. Subsequently, the cells were scratched from the petri dishes and collected, and the collected cells were suspended in 10% serum containing αMEM medium to have the total volume of 100 ml. The resulting cell suspension was plated on 96 well plates at a ratio of 100 µl/well. After these plates were cultured overnight, a medium prepared by dissolving geneticin (hereinafter referred to as "G418") in 10% serum containing αMEM medium to have a concentration of 1.6 mg/ml was added at a ratio of 100 µl/well (G418 final concentration 800 µg/ml). Culturing was further continued for 3 weeks, during which the medium was replaced with 10% serum containing αMEM medium containing 800 µg/ml G418 at a rate of once per week. The volume of the medium was set at 200 µl/well. After said 3 weeks, cells were scratched from the wells in which colony formation had been observed, and collected (for 192 wells), and the collected cells were divided into three and independently plated on different plates, followed by continuous culturing for 4 days. To the first plate, only DMSO was added (solvent control), and to the second plate, 3-methylcholanthrene (hereinafter referred to as "3-MC") dissolved in DMSO was added so that the final concentration of 3-MC in the second plate came to 10 µM per well. The first and second plates were then cultured overnight. […]

For `Clc1cc2c(cc1Cl)Oc1cc(Cl)c(Cl)cc1O2` [TCDD, 2,3,7,8-tetrachlorodibenzo-p-dioxin], the viability at 40 h (final conc. 0.02 pg/ml) was found to be 100%; the viability at 40 h (final conc. 0.2 pg/ml) was 90%; the viability at 40 h (final conc. 2 pg/ml) came to 90%; the viability at 40 h (final conc. 20 pg/ml) is 80%; the viability at 40 h (final conc. 200 pg/ml) was found to be 70%; the viability at 40 h (final conc. 2000 pg/ml) came to 60%. The viability at 40 h (final conc. 20000 pg/ml) amounted to 60%.
